Test results published in the NIST ThermoML archive (doi:10.1016/j.jct.2008.03.011).

Assays:
[1] = xn = mol fraction of the nth substance listed; conditions: 101 kPa, Liquid; for speed of sound: Sing-around technique in a fixed-path interferometer
[2] = refractive index (Na D-line) (dimensionless); xn = mol fraction of the nth substance listed; conditions: 101 kPa, Liquid, Standard Abbe refractometry

CCC(C)=O [butanone] + C1CCCCC1
Conditions	mass density, 293.15 K [kg/m3]	mass density, 298.15 K [kg/m3]	mass density, 303.15 K [kg/m3]	refractive index, 293.15 K	refractive index, 298.15 K	refractive index, 303.15 K	speed of sound, 293.15 K [m/s]	speed of sound, 298.15 K [m/s]	speed of sound, 303.15 K [m/s]
[1], x2 = 0	805.6	799.7	794.9	–	–	–	1212	1192	1163
[1], x2 = 0.0472	802.6	796.4	791.5	–	–	–	1212	1190	1159
[1], x2 = 0.0979	799.8	793.7	788.8	–	–	–	1213	1190	1159
[1], x2 = 0.1986	794.7	788.8	784	–	–	–	1212	1190	1158
[1], x2 = 0.2973	790.3	784.8	779.9	–	–	–	1212	1190	1158
[1], x2 = 0.3975	786.6	781.4	776.4	–	–	–	1216	1192	1161
[1], x2 = 0.497	783.7	778.4	773.5	–	–	–	1221	1198	1166
[1], x2 = 0.6045	781	776.1	771.1	–	–	–	1229	1204	1172
[1], x2 = 0.6922	779.5	774.6	769.6	–	–	–	1236	1212	1179
[1], x2 = 0.7984	778.2	773.4	768.5	–	–	–	1248	1222	1188
[1], x2 = 0.8978	777.8	773.1	768.2	–	–	–	1261	1236	1200
[1], x2 = 0.9476	778	773.2	768.5	–	–	–	1269	1244	1207
[2], x2 = 0	–	–	–	1.37879	1.37618	1.37355	–	–	–
[2], x2 = 0.0472	–	–	–	1.38079	1.37811	1.3754	–	–	–
[2], x2 = 0.0979	–	–	–	1.3829	1.38016	1.37748	–	–	–
[2], x2 = 0.1986	–	–	–	1.38711	1.38436	1.38159	–	–	–
[2], x2 = 0.2973	–	–	–	1.39144	1.38857	1.38588	–	–	–
[2], x2 = 0.3975	–	–	–	1.39592	1.3929	1.39029	–	–	–
[2], x2 = 0.497	–	–	–	1.40055	1.39774	1.39494	–	–	–
[2], x2 = 0.6045	–	–	–	1.40575	1.4026	1.40014	–	–	–
[2], x2 = 0.6922	–	–	–	1.41006	1.40723	1.40443	–	–	–
[2], x2 = 0.7984	–	–	–	1.4153	1.4125	1.4097	–	–	–
[2], x2 = 0.8978	–	–	–	1.42041	1.41769	1.41473	–	–	–
[2], x2 = 0.9476	–	–	–	1.42316	1.42035	1.41746	–	–	–
